Assay results reported in US12617797B2, “Substituted pyrazolo [1,5-a]pyrimidines having multimodal activity against pain” (ESTEVE PHARMACEUTICALS, S.A., priority 2020, dated 2026).

What was measured:
[1] = target: T1, Human σ1 receptor (Homo sapiens, UniProt Q99720); assay: Human σ1 receptor radioligand assay ([3H](+)-pentazocine binding, transfected HEK-293 membranes); conditions: binding to σ1 receptor expressed as Ki; + also covers inhibition between 1% and 50%; read-out: σ-1 binding
T1 construct: expressed in transfected cells; host or cells: HEK-293
Method in brief: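 Ki was derived from five test concentrations, or % inhibition was measured at a single 1 or 10 μM dose, against 5 nM [3H](+)-pentazocine. Incubation was 120 min at 37° C in 50 mM Tris-HCl pH 8 with 7 μg HEK-293 membranes, and 10 μM haloperidol set non-specific binding. Bound radioactivity was counted after filtration.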

[2] = target: Human α2δ-1 subunit of Cav2.2 calcium channel (Homo sapiens, UniProt P54289); assay: Human α2δ-1 subunit of Cav2.2 calcium channel assay ([3H]-gabapentin binding); conditions: binding to the α2δ-1 subunit of voltage-gated calcium channels expressed as Ki; + also covers inhibition between 1% and 50%
Method in brief: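 Displacement of 15 nM [3H]-gabapentin from human α2δ-1-enriched membranes (Hepes-KOH 10 mM, pH 7.4; 27 °C, 60 min) read by filter binding and radioactivity counting. Values are single-point % inhibition (1 or 10 μM) or five-point Ki; 10 μM pregabalin sets NSB.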

Human α2δ-1 subunit of Cav2.2 calcium channel, sequence (P54289 25-1103): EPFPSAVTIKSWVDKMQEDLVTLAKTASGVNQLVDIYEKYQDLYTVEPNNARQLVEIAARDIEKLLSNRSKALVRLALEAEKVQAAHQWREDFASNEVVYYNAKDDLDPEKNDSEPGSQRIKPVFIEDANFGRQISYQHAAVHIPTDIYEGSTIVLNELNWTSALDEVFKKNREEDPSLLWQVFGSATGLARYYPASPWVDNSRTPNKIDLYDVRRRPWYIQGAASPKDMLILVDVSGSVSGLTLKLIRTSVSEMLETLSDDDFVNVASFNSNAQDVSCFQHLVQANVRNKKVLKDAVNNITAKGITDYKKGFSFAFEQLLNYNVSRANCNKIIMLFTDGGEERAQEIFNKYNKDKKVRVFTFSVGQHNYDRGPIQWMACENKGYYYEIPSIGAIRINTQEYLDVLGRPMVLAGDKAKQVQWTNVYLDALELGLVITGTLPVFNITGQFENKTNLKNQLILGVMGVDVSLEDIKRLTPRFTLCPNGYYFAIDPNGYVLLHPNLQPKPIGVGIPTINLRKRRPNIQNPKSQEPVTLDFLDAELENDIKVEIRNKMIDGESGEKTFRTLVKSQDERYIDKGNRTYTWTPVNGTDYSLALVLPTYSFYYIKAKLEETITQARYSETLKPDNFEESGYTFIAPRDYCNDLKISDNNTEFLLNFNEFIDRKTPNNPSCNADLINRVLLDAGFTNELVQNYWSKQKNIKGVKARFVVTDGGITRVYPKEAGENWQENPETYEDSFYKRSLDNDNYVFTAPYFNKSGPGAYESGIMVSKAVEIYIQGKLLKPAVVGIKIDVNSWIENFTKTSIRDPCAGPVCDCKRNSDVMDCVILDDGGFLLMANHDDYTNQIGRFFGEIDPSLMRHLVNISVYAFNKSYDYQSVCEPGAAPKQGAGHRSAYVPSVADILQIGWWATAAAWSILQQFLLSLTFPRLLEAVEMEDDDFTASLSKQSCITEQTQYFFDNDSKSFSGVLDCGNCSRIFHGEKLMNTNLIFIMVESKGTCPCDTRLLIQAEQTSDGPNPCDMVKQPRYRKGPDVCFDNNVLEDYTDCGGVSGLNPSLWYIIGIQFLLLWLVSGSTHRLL
T1 sequence (Q99720 whole entry): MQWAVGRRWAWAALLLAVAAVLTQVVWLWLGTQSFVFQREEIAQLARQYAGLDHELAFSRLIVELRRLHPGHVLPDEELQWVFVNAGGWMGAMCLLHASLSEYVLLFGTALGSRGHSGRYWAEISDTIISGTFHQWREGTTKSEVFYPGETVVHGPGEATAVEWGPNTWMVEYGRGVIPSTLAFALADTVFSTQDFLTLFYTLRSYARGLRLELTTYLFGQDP

Row | Ki [1] [nM] | Ki [2] [nM] | Structure (SMILES)
1 | < 500 | 500 to 5000 | Cc1nn2c([C@@H]3CCCN(Cc4ccc(Cl)cc4)C3)ccnc2c1CN[C@@H](C)c1ccccc1 [Example 197, (S)—N-((7-((R)-1-(4-chlorobenzyl)piperidin-3-yl)-2-methylpyrazolo[1,5-a]pyrimidin-3-yl)methyl)-1-phenylethan-1-amine]
2 | < 500 | < 500 | Cc1nn2c([C@H]3CCCN(Cc4ccc(Cl)cc4)C3)ccnc2c1CN[C@@H](C)c1ccccc1 [Example 198, (S)—N-((7-((S)-1-(4-chlorobenzyl)piperidin-3-yl)-2-methylpyrazolo[1,5-a]pyrimidin-3-yl)methyl)-1-phenylethan-1-amine]
3 | < 500 | < 500 | Cc1nn2c([C@H]3CCCN(Cc4ccc(Cl)cc4)C3)ccnc2c1CNCC1CCOCC1 [Example 199, (S)-1-(7-(1-(4-Chlorobenzyl)piperidin-3-yl)-2-methylpyrazolo[1,5-a]pyrimidin-3-yl)-N-((tetrahydro-2H-pyran-4-yl)methyl)methanamine]
4 | < 500 | > 5000 | Cc1nn2c([C@@H]3CCCN(Cc4ccc(Cl)cc4)C3)ccnc2c1CNCC1CCOCC1 [Example 200, (R)-1-(7-(1-(4-chlorobenzyl)piperidin-3-yl)-2-methylpyrazolo[1,5-a]pyrimidin-3-yl)-N-((tetrahydro-2H-pyran-4-yl)methyl)methanamine]
5 | < 500 | < 500 | Cc1nn2c([C@@H]3CCCN(Cc4ccc(Cl)cc4)C3)ccnc2c1CNC[C@H]1CCOC1 [Example 202, 1-(7-((R)-1-(4-chlorobenzyl)piperidin-3-yl)-2-methylpyrazolo[1,5-a]pyrimidin-3-yl)-N—(((R)-tetrahydrofuran-3-yl)methyl)methanamine]
6 | < 500 | 500 to 5000 | Cc1nn2c([C@H]3CCCN(Cc4ccc(Cl)cc4)C3)ccnc2c1CNC[C@@H]1CCOC1 [Example 203, 1-(7-((S)-1-(4-chlorobenzyl)piperidin-3-yl)-2-methylpyrazolo[1,5-a]pyrimidin-3-yl)-N—(((S)-tetrahydrofuran-3-yl)methyl)methanamine]
7 | < 500 | 500 to 5000 | Cc1nn2c([C@H]3CCCN(Cc4ccccc4)C3)ccnc2c1CNCC1CCOCC1 [Example 204, (S)-1-(7-(1-Benzylpiperidin-3-yl)-2-methylpyrazolo[1,5-a]pyrimidin-3-yl)-N-((tetrahydro-2H-pyran-4-yl)methyl)methanamine]
8 | < 500 | > 5000 | Cc1nn2c([C@@H]3CCCN(Cc4ccccc4)C3)ccnc2c1CNCC1CCOCC1 [Example 205, (R)-1-(7-(1-benzylpiperidin-3-yl)-2-methylpyrazolo[1,5-a]pyrimidin-3-yl)-N-((tetrahydro-2H-pyran-4-yl)methyl)methanamine]
9 | < 500 | < 500 | Cc1nn2c([C@H]3CCCN(Cc4ccc(F)cc4)C3)ccnc2c1CNCC1CCOCC1 [Example 206, (S)-1-(7-(1-(4-Fluorobenzyl)piperidin-3-yl)-2-methylpyrazolo[1,5-a]pyrimidin-3-yl)-N-((tetrahydro-2H-pyran-4-yl)methyl)methanamine]
10 | < 500 | > 5000 | Cc1nn2c([C@@H]3CCCN(Cc4ccc(F)cc4)C3)ccnc2c1CNCC1CCOCC1 [Example 207, (R)-1-(7-(1-(4-fluorobenzyl)piperidin-3-yl)-2-methylpyrazolo[1,5-a]pyrimidin-3-yl)-N-((tetrahydro-2H-pyran-4-yl)methyl)methanamine]
11 | < 500 | > 5000 | Cc1nn2c([C@H]3CCCN(Cc4cccc(C#N)c4)C3)ccnc2c1CNCC1CCOCC1 [Example 208, (S)-3-((3-(2-Methyl-3-((((tetrahydro-2H-pyran-4-yl)methyl)amino)methyl)pyrazolo[1,5-a]pyrimidin-7-yl)piperidin-1-yl)methyl)benzonitrile]
12 | < 500 | > 5000 | Cc1nn2c([C@@H]3CCCN(Cc4cccc(C#N)c4)C3)ccnc2c1CNCC1CCOCC1 [Example 209, (R)-3-((3-(2-methyl-3-((((tetrahydro-2H-pyran-4-yl)methyl)amino)methyl)pyrazolo[1,5-a]pyrimidin-7-yl)piperidin-1-yl)methyl)benzonitrile]
13 | < 500 | > 5000 | Cc1nn2c([C@@H]3CCCN(Cc4ccc(Cl)cc4)C3)ccnc2c1CN(C)C [Example 211, (R)-1-(7-(1-(4-chlorobenzyl)piperidin-3-yl)-2-methylpyrazolo[1,5-a]pyrimidin-3-yl)-N,N-dimethylmethanamine]
14 | < 500 | > 5000 | CNCc1c(C)nn2c([C@@H]3CCCN(Cc4ccc(Cl)cc4)C3)ccnc12 [Example 212, (R)-1-(7-(1-(4-Chlorobenzyl)piperidin-3-yl)-2-methylpyrazolo[1,5-a]pyrimidin-3-yl)-N-methylmethanamine]
15 | < 500 | 500 to 5000 | CNCc1c(C)nn2c([C@H]3CCCN(Cc4ccc(Cl)cc4)C3)ccnc12 [Example 213, (S)-1-(7-(1-(4-chlorobenzyl)piperidin-3-yl)-2-methylpyrazolo[1,5-a]pyrimidin-3-yl)-N-methylmethanamine]

Further lines, the compound ahead of its results:

Row | Structure (SMILES) | Ki [1] [nM] | Ki [2] [nM]
16 | Cc1nn2c(C3CCCN(Cc4ccc(C(F)(F)F)nc4)C3)ccnc2c1CNCC1CCOCC1 (centres unmarked) [Example 184, 1-(2-Methyl-7-(1-((6-(trifluoromethyl)pyridin-3-yl)methyl)piperidin-3-yl)pyrazolo[1,5-a]pyrimidin-3-yl)-N-((tetrahydro-2H-pyran-4-yl)methyl)methanamine] | < 500 | > 5000
17 | Cc1nn2c(C3CCCN(CC4CCOCC4)C3)ccnc2c1CNCC1CCOCC1 (centres unmarked) [Example 185, 1-(2-Methyl-7-(1-((tetrahydro-2H-pyran-4-yl)methyl)piperidin-3-yl)pyrazolo[1,5-a]pyrimidin-3-yl)-N-((tetrahydro-2H-pyran-4-yl)methyl)methanamine] | > 1000 | > 5000
18 | Cc1nn2c(C3CCCN(Cc4ccc(Cl)cc4Cl)C3)ccnc2c1CN(C)C (centres unmarked) [Example 186, 1-(7-(1-(2,4-Dichlorobenzyl)piperidin-3-yl)-2-methylpyrazolo[1,5-a]pyrimidin-3-yl)-N,N-dimethylmethanamine] | < 500 | > 5000
19 | CCc1nn2c(C3CCCN(Cc4ccc(Cl)cc4)C3)ccnc2c1CNCC1CCOCC1 (centres unmarked) [Example 187, 1-(7-(1-(4-Chlorobenzyl)piperidin-3-yl)-2-ethylpyrazolo[1,5-a]pyrimidin-3-yl)-N-((tetrahydro-2H-pyran-4-yl)methyl)methanamine] | < 500 | < 500
20 | Clc1ccc(CN2CCCC(c3ccnc4c(CNCC5CCOCC5)c(C5CC5)nn34)C2)cc1 (centres unmarked) [Example 188, 1-(7-(1-(4-Chlorobenzyl)piperidin-3-yl)-2-cyclopropylpyrazolo[1,5-a]pyrimidin-3-yl)-N-((tetrahydro-2H-pyran-4-yl)methyl)methanamine] | < 500 | < 500
21 | COc1nn2c(C3CCCN(Cc4ccc(Cl)cc4)C3)ccnc2c1CNCC1CCOCC1 (centres unmarked) [Example 189, 1-(7-(1-(4-Chlorobenzyl)piperidin-3-yl)-2-methoxypyrazolo[1,5-a]pyrimidin-3-yl)-N-((tetrahydro-2H-pyran-4-yl)methyl)methanamine] | < 500 | < 500
22 | Clc1ccc(CN2CCCC(c3ccnc4c(CNCC5CCOCC5)c(Cl)nn34)C2)cc1 (centres unmarked) [Example 190, 1-(2-Chloro-7-(1-(4-chlorobenzyl)piperidin-3-yl)pyrazolo[1,5-a]pyrimidin-3-yl)-N-((tetrahydro-2H-pyran-4-yl)methyl)methanamine] | < 500 | < 500
23 | CC(C)CCN1CCCC(c2ccnc3c(CNCC4CCOCC4)c(Cl)nn23)C1 (centres unmarked) [Example 191, 1-(2-Chloro-7-(1-isopentylpiperidin-3-yl)pyrazolo[1,5-a]pyrimidin-3-yl)-N-((tetrahydro-2H-pyran-4-yl)methyl)methanamine] | < 500 | > 5000
24 | CC(=O)N1CCC(CNCc2c(Cl)nn3c(C4CCCN(CCC(C)C)C4)ccnc23)CC1 (centres unmarked) [Example 192, 1-(4-((((2-chloro-7-(1-isopentylpiperidin-3-yl)pyrazolo[1,5-a]pyrimidin-3-yl)methyl)amino)methyl)piperidin-1-yl)ethan-1-one] | < 500 | > 5000
25 | CC(=O)N1CCC(CNCc2c(C)nn3c([C@H]4CCCN(Cc5ccc(Cl)cc5)C4)ccnc23)CC1 [Example 193, (S)-1-(4-((((7-(1-(4-Chlorobenzyl)piperidin-3-yl)-2-methylpyrazolo[1,5-a]pyrimidin-3-yl)methyl)amino)methyl)piperidin-1-yl)ethan-1-one] | < 500 | < 500
26 | CC(=O)N1CCC(CNCc2c(C)nn3c([C@@H]4CCCN(Cc5ccc(Cl)cc5)C4)ccnc23)CC1 [Example 194, (R)-1-(4-((((7-(1-(4-chlorobenzyl)piperidin-3-yl)-2-methylpyrazolo[1,5-a]pyrimidin-3-yl)methyl)amino)methyl)piperidin-1-yl)ethan-1-one] | < 500 | 500 to 5000
27 | Cc1nn2c([C@@H]3CCCN(Cc4ccc(Cl)cc4)C3)ccnc2c1CN[C@H](C)c1ccccc1 [Example 195, (R)—N-((7-((R)-1-(4-Chlorobenzyl)piperidin-3-yl)-2-methylpyrazolo[1,5-a]pyrimidin-3-yl)methyl)-1-phenylethan-1-amine] | < 500 | 500 to 5000
28 | Cc1nn2c([C@H]3CCCN(Cc4ccc(Cl)cc4)C3)ccnc2c1CN[C@H](C)c1ccccc1 [Example 196, (R)—N-((7-((S)-1-(4-chlorobenzyl)piperidin-3-yl)-2-methylpyrazolo[1,5-a]pyrimidin-3-yl)methyl)-1-phenylethan-1-amine] | < 500 | > 5000
